Measurements as given in patent US5728670A, “Enzymatically stable alkyl (alkyl glycosid) uronates as nonionic surfactants and a process for their manufacture” (Lever Brothers Company, Division of Conopco, Inc., priority 1993, dated 1998).

Key:
Lipolase = target: T1, Lipolase (Thermomyces lanuginosus, UniProt O59952); assay: Enzyme stability: Lipolase-catalyzed hydrolysis monitored by pH-stat titration; format: biochemical; settings: for MEAN SLOPE: Tris-HCl pH 8.0, 30° C., acid production titrated with 0.1N NaOH; for STABILITY / REL VELOCITY: Lipolase hydrolysis; for STABILITY: fold relative to α-methyl D-glucose monolaurate; for REL VELOCITY: relative to α-methyl D-glucose monolaurate = 100
T1 sequence (O59952 23-291): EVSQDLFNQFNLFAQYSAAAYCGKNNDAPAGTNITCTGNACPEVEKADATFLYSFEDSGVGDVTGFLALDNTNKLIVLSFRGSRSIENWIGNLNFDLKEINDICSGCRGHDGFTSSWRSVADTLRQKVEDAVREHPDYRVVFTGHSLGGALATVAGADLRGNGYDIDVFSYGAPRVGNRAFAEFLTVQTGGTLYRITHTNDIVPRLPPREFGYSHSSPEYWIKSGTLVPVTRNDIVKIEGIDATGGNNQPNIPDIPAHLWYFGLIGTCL
Protocol: Enzyme catalyzed hydrolysis of uronates was monitored using a TitraLab (Radiometer, Copenhagen) pH-stat autotitrator. Emulsified substrate was prepared by mixing water (5 mL), 1-butanol (1 mL), acacia gum (1 g), and substrate (0.357 mmoles) using a homogenizer (Omni-mixer, OCI Instruments)for 15 minutes. Emulsified substrate (5 mL) was mixed with Tris-HCl buffer (20 mL, 100 mM, pH 8.0) and equilibrated at 30° C. in a thermostatic reaction cup. Lipolase (20.5 LU) was added to initiate the reaction and the production of acid was monitored by titration with 0.1N NaOH.

[1] = Wash cycle stability (t1/2) by automatic titrator; format: physicochemical; settings: 40° C., pH=10, 8.13×10^-3 M concentration; 8130 µM
Protocol: The wash cycle stability or half-life (t1/2) of decyl(methyl α-D-galactopyranosid)uronate was determined using an automatic titrator at 40° C., pH=10, 8.13×10^-3 M concentration.

| SMILES | MEAN SLOPE (Lipolase; Lipolase 20.5 LU) | STABILITY (Lipolase) [X] | REL VELOCITY (Lipolase) | Wash cycle stability or half-life (t1/2) [1] [h] | Enzyme stability to lipolase hydrolysis (in words) (Lipolase; Lipolase 20.5 LU, pH 8.0, 30° C.) |
| --- | --- | --- | --- | --- | --- |
| CCCCCCCCCCCC(=O)OC[C@H]1OC(O)[C@H](O)[C@@H](O)[C@@H]1O (stereo partly drawn) [D-Glucose Mono-laurate, D-glucose monolaurate] | 1.6880 | 2.4 | 42 | – | – |
| CCCCCCCCCCOC(=O)[C@H]1O[C@H](OC)[C@H](O)[C@@H](O)[C@H]1O [Decyl(Methyl α-D-Galactopyranosid)uronate] | – | – | – | 7.9 | – |
| CCCCCCCCCCOC(=O)[C@H]1O[C@@H](OC)[C@H](O)[C@@H](O)[C@H]1O [Decyl(Methyl β-D-Galactopyranosid)uronate] | 0.7101 | 5.6 | 18 | – | – |
| CCCCCCOC(=O)[C@H]1O[C@H](OC)[C@H](O)[C@@H](O)[C@H]1O [Hexyl(Methyl α-D-Galactopyranosid)uronate] | – | – | – | – | very stable/slow hydrolysis |
| CCCCCCCCCCCC(=O)OC[C@H]1O[C@H](OC)[C@H](O)[C@@H](O)[C@@H]1O [α-Methyl D-Glucose Monolaurate, α-methyl D-glucose monolaurate] | 3.9921 | 1 | 100 | – | – |
